Data on one molecule can be found in patent US20230373938A1, “BENZOTHIAZOLE MEROTERPENOID COMPOUND AND DERIVATIVE THEREOF, AND PREPARATION METHOD THEREFOR AND USE THEREOF” (THIRD INSTITUTE OF OCEANOGRAPHY, MINISTRY OF NATURAL …, priority 2020, published 2023).

In one test the target is T1, RXRalpha (Homo sapiens, UniProt P19793).
T1 construct: expressed in transfected cells; host or cells: Human embryonic kidney cells (293T)
T1 sequence (P19793 1-462): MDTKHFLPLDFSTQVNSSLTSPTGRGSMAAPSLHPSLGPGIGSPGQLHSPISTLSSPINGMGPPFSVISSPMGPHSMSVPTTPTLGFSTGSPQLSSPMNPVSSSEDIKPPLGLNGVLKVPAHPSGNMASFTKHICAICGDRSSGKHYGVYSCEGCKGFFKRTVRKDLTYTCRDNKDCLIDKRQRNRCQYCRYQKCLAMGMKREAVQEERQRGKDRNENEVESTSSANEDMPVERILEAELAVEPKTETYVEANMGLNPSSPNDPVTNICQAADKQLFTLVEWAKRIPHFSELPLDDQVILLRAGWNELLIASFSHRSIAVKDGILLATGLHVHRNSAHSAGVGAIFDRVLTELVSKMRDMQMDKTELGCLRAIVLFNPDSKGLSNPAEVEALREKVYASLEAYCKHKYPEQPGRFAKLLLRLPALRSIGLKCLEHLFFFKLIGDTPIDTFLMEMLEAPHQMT
Put plainly: RXRalpha dual-luciferase reporter gene assay (transcriptional activity). The test is classed as cell-based. To be noted: 293T cells, in combination with agonist 9-cis-RA; dosed 12.5, 25, 50 μM for 12 h. The source says:
In this embodiment, a dual-luciferase reporter (DLR) assay system consisting of firefly luciferase (FL) reporter gene and Rellina luciferase (RL) reporter gene is used. The RL reporter gene is used as an internal control to normalize measurement results of the FL reporter gene. In cells lacking endogenous RXRalpha and necessary components for downstream signal transduction, a receptor RXRalpha and reporter gene containing RXRalpha response elements are introduced by transfection, so as to simply simulate a transcriptional activation process of a receptor in vivo.
In this embodiment, the following three groups are set: • Negative control group: culture solution of an equal amount, 0.1% DMSO, containing cells, without the compounds as represented by formulas I to III; • Positive control group: culture solution of an equal amount, added with an RXRalpha agonist 9-cis-retinoic acid with or without an antagonist UVI3003 respectively; • Treatment group: cell culture solutions added with an RXRalpha agonist 9-cis-retinoic acid and the compounds as represented by formulas I to III respectively.
Specific steps include: • (1) Cell culture and preparation of test solution • Human embryonic kidney cells (293T) are cultured in a DMEM medium containing 10% fetal bovine serum (FBS) in an incubator containing 5% CO2 at 37° C., and passaged regularly based on growth law of the cells. […]
For orientation: A reporter such as luciferase makes a cellular process visible.

Another test concerns the target T2, RXRalpha-LBD protein (Homo sapiens, UniProt P19793).
T2 sequence (P19793 227-458 limits assumed): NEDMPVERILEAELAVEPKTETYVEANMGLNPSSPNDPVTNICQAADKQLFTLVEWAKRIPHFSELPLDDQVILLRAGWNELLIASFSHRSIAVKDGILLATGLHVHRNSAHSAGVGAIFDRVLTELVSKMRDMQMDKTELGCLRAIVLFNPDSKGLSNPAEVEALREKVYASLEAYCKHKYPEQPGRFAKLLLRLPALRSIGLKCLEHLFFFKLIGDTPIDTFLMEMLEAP
Put plainly: Biacore (surface plasmon resonance) binding to RXRalpha-LBD protein. The following applies: Biacore T200, CM5 chip. As to the method: A purified nuclear receptor RXRalpha-LBD protein is coupled with a CM5 chip of Biacore. Then the compounds to be tested are diluted with PBS to prepare solutions at different concentrations before sampling. When samples to be tested flow over the surface of the chip, the binding between biomolecules results in an increase in surface mass of a biosensor, so that refractive index changes. By monitoring angular variation of SPR, kinetic binding and dissociation constants, affinity and specificity of analytes can be automatically obtained. A BiacoreT200 detector can detect interaction between a target protein and the samples to be tested in real time, and binding strength is expressed in response unites (RU) (a change in concentration of binding substances on the chip surface by 1 pg/mm2 is defined as 1 RU). The compounds I to III are screened by Biacore technology, and a binding constant KD of small molecular compounds with RXRalpha-LBD is calculated based on a concentration gradient experiment.
Background: SPR reads the build-up and loss of mass on a sensor chip optically.

On to `C=C1CCC2C(C)(C)CCC[C@]2(C)[C@H]1Cc1cc(O)c(C)c2sc(C(=O)NCC(=O)O)nc12` (stereo partly drawn) [compound I, meroterpenthiazole A], for which the “inhibition of the transcription of RXRalpha by 9-cis-RA” value on RXRalpha is “inhibit the transcription of RXRalpha by 9-cis-RA in a concentration-dependent manner”. On RXRalpha-LBD protein, the “binding mode to RXRalpha protein” value was “fast binding and fast dissociation mode”. In addition, the Kd (commonly the concentration at which binding is half-saturated) at RXRalpha-LBD protein (concentration gradient, read-out: binding constant KD with RXRalpha-LBD) stood at 12.3 µM.
